Reference: ChEMBL document CHEMBL1212789, “Activity and toxicity of farnesol towards Candida albicans are dependent on growth conditions” (Antimicrob Agents Chemother, 2010)
Calls of active or inactive are those of the source. The calls are words filed in the database; no cut-off is given here.

Legend:
Assay type in all cases: functional, organism-based
[1] = test system: Candida albicans; test: Antifungal activity against log phase culture of Candida albicans in GPP medium at 300 uM after 4 hrs by methylene blue assay
[2] = test system: Candida albicans; test: Antifungal activity against Candida albicans in YPD medium at => 300 uM after 24 hrs by methylene blue assay
[3] = test system: Candida albicans; test: Antifungal activity against stationary phase culture of Candida albicans in GPP medium at 10 to 300 uM at 30 degC after 24 hrs by methylene blue assay
[4] = test system: Candida albicans; test: Antifungal activity against exponential phase culture of Candida albicans in GPP medium at 10 to 300 uM at 30 degC after 24 hrs by methylene blue assay
[5] = test system: Candida albicans; test: Antifungal activity against exponential phase culture of Candida albicans in GPP medium at 10 to 300 uM at 37 degC after 24 hrs by methylene blue assay
[6] = test system: Candida albicans; test: Antifungal activity against stationary phase culture of Candida albicans in YPD medium at 10 to 300 uM at 30 degC after 24 hrs by methylene blue assay
[7] = test system: Candida albicans; test: Antifungal activity against log phase culture of Candida albicans in GPP medium at 40 uM after 24 hrs by methylene blue assay
[8] = test system: Candida albicans; test: Antifungal activity against exponential phase culture of Candida albicans at 10 to 300 uM treated directly to growing cultures measured after 4 hrs by methylene blue assay
[9] = test system: Candida albicans; test: Antifungal activity against log phase culture of Candida albicans at 10 to 300 uM treated directly to growing cultures measured after 4 hrs by methylene blue assay
[10] = test system: Candida albicans; test: Antifungal activity against exponential phase culture of Candida albicans in GPP medium at 40 uM after 24 hrs by methylene blue assay
[11] = test system: Candida albicans; test: Antifungal activity against exponential phase culture of Candida albicans in GPP medium at 10 to 300 uM at 25 degC after 24 hrs by methylene blue assay
[12] = test system: Candida albicans; test: Antifungal activity against stationary phase culture of Candida albicans in GPP medium up to 300 uM after 24 hrs by methylene blue assay
[13] = test system: Candida albicans; test: Antifungal activity against exponential phase culture of Candida albicans in YPD medium at 10 to 300 uM at 37 degC after 24 hrs by methylene blue assay
[14] = test system: Candida albicans; test: Antifungal activity against exponential phase culture of Candida albicans in YPD medium at 10 to 300 uM at 30 degC after 24 hrs by methylene blue assay
[15] = test system: Candida albicans; test: Antifungal activity against stationary phase culture of Candida albicans in GPP medium at 10 to 300 uM at 25 degC after 24 hrs by methylene blue assay
[16] = test system: Candida albicans; test: Antifungal activity against Candida albicans in YPD medium up to 300 uM after 24 hrs by methylene blue assay
[17] = test system: Candida albicans; test: Antifungal activity against exponential phase culture of Candida albicans in YPD medium at 10 to 300 uM at 25 degC after 24 hrs by methylene blue assay
[18] = test system: Candida albicans; test: Antifungal activity against stationary phase culture of Candida albicans in GPP medium at 10 to 300 uM at 37 degC after 24 hrs by methylene blue assay
[19] = test system: Candida albicans; test: Antifungal activity against log phase culture of Candida albicans in GPP medium at 100 uM after 1 hr by methylene blue assay
[20] = test system: Candida albicans; test: Antifungal activity against stationary phase culture of Candida albicans in YPD medium at 10 to 300 uM at 37 degC after 24 hrs by methylene blue assay
[21] = test system: Candida albicans; test: Antifungal activity against stationary phase culture of Candida albicans in YPD medium at 10 to 300 uM at 25 degC after 24 hrs by methylene blue assay

## CC(C)=CCC/C(C)=C/CC/C(C)=C/CO
[1]
  Activity: Active
[2]
  Activity: Active
[3]
  Activity: inactive
[4]
  Activity: inactive
[5]
  Activity: inactive
[6]
  Activity: inactive
[7]
  Activity: Active
[8]
  Activity: Active
[9]
  Activity: Active
[10]
  Activity: Active
[11]
  Activity: inactive
[12]
  Activity: inactive
[13]
  Activity: inactive
[14]
  Activity: inactive
[15]
  Activity: inactive
[16]
  Activity: inactive
[17]
  Activity: inactive
[18]
  Activity: inactive
[19]
  Activity: Active
[20]
  Activity: inactive
[21]
  Activity: inactive
